Measured values taken from US20060111327A1, “Derivatives of triptolide having a high immunosuppressive effect and high water solubility, and uses thereof” (priority 2002, published 2006).
Where “and” joins values, the source holds several entries; their conditions need not be identical. Equal entries are not always repeated. Where two headings read alike, the source gives them in different places.

Columns and labels:
[1] = test system: cotton ball granulation in rat; parameters: species or system Wister rats; settings: in vivo
[2] = test system: rat adjuvant-induced arthritis; settings: in vivo
[3] = test system: transplanted heart (C57BL mouse heart grafted into balb/c mouse); settings: in vivo
[4] = in vivo; settings: both, Kunming, mouse
[5] = physchem; settings: water
[6] = test system: rat adjuvant-induced arthritis; parameters: species or system SD rats; settings: in vivo
[7] = Cell membrane permeability (unpublished experimental data); assay type: in vitro ADME; settings: our unpublished experimental data
[8] = background statement; cited from earlier work
[9] = in vivo; cited from earlier work
[10] = test system: Kunming mice; settings: both, mouse, in vivo, iv
[11] = test system: IL-2; assay type: cell-based, rat
[12] = test system: IL-6; assay type: cell-based, rat
[13] = test system: iNOS; assay type: cell-based, rat

Q: Which results are given for `CC(C)[C@]12O[C@H]1C1O[C@]13[C@]1(O[C@H]1C[C@H]1C4=C(CC[C@@]13C)C(=O)OC4)[C@@H]2OP(=O)([O-])[O-].[Na+].[Na+]` (stereo partly drawn) [WDY7, disodium triptolide-14-β-phosphate]?
A: Inhibition of swelling [1]: 41.5% and 55.6% and 56.8%; effect against cotton ball granulation [1]: significant effect; effect in the treatment of adjuvant-induced rat arthritis [2]: significant effect; Average survival time [3]: 13.8 days; anti-rejection effect [3]: significant anti-rejection effect; body weight and appetite of treated mice [3]: did not show a decrease of body weight and their appetites were normal; LD50 ([4]; acute toxicity LD50): 0.8 mg/kg; solubility [5]: > 100 mg/mL

Q: What does the source list for `CC(C)[C@@]1(O)[C@H](SC#N)C2O[C@]23[C@]2(O[C@H]2C[C@H]2C4=C(CC[C@@]23C)C(=O)OC4)[C@@H]1OC(=O)CCC(=O)O` (stereo partly drawn) [WDY6, 12-β-thiocyano-13-α-hydroxy triptolide-14-β-succinic acid mono-ester]?
A: Inhibition of swelling [1]: 42.6% and 47.1% and 49.0%; effect against cotton ball granulation [1]: significant effect; effect on thickness of the contralateral paw (left hind paw) [6]: significantly decreased; effect in the treatment of adjuvant-induced rat arthritis [2]: significant effect; Average survival time [3]: 12.7 days; body weight and appetite of treated mice [3]: did not show a decrease of body weight and their appetites were normal

Q: For `CC(C)[C@]12OP(=O)([O-])O[C@H]1[C@]13O[C@H]1C[C@H]1C4=C(CC[C@]1(C)[C@@]31OC1[C@H]2Cl)C(=O)OC4.[Na+]` (stereo partly drawn) [WDY2, sodium 12-β-chlorotriptolide-13-α-14-13-phosphate], which solubility [5] is on record?
A: > 100 mg/mL

Q: Which Inhibition of swelling [1] does the source give for `C[C@]12CCC(=O)C=C1CC[C@@H]1[C@@H]2[C@@H](O)C[C@@]2(C)[C@H]1CC[C@]2(O)C(=O)CO` [Hydrocordisone, reference compound] here?
A: 42.2%

Q: What about the “effect against cotton ball granulation” value [1] of the same compound?
A: significantly decreased weight of cotton ball granulation

Q: With `CC(C)[C@]12O[C@H]1[C@@H]1O[C@]13[C@]1(O[C@H]1C[C@H]1C4=C(CC[C@@]13C)C(=O)OC4)[C@@H]2O` [triptolide] as the compound, how does the “cell membrane permeability” value [7] read?
A: Low cell membrane permeability

Q: And the “water solubility” value [8]?
A: Low water solubility

Q: What about the LD50 [9] of the same compound?
A: 0.85 mg/kg body weight

Q: What does the source list for `CC(C)[C@]12OP(=O)([O-])O[C@H]1[C@]13O[C@H]1C[C@H]1C4=C(CC[C@]1(C)[C@@]31OC1[C@H]2SC#N)C(=O)OC4.[Na+]` (stereo partly drawn) [WDY1, sodium 12-β-thiocyano triptolide-13-α-14-β-phosphate]?
A: Inhibition of swelling [1]: 45.7% and 59.3% and 46.3%; effect against cotton ball granulation [1]: significant effect; Death No. of mice ([10]; 98 mg/kg): 0; Mortality ([10]; 98 mg/kg): 0%; Death No. of mice ([10]; 109 mg/kg): 1; Mortality ([10]; 109 mg/kg): 10%; Death No. of mice ([10]; 122 mg/kg): 4; Mortality ([10]; 122 mg/kg): 40%; Death No. of mice ([10]; 135 mg/kg): 8; Mortality ([10]; 135 mg/kg): 80%; Death No. of mice ([10]; 150 mg/kg): 9; Mortality ([10]; 150 mg/kg): 90%; LD50 ([4]; acute toxicity LD50): 126 mg/kg; LD50 ([4]; iv, 95% limit of LD50): 119 to 133 mg/kg; LD50 ([4]; iv, LD50): 126 mg/kg; solubility [5]: > 100 mg/mL

Q: With `CC(C)[C@]12O[C@H]1C1O[C@]13[C@]1(O[C@H]1C[C@H]1C4=C(CC[C@@]13C)C(=O)OC4)[C@@H]2O[PH](=O)[O-].[Na+]` (stereo partly drawn) [WDY4, sodium triptolide-14-β-phosphite] as the compound, how does the “inhibition of LPS- or PHA-induced IL-2 mRNA expression” value [11] read?
A: completely inhibited

Q: What about the “inhibition of mRNA expression of IL-6” value [12] of the same compound?
A: completely

Q: And the “inhibition of mRNA expression of iNOS” value [13]?
A: completely

Q: And the solubility [5]?
A: > 100 mg/mL
